System: CN0375-F725-PDC KRAS spheroid viability
Assay: Anticancer human tumor CN0375-F725-PDC patient-derived colon carcinoma cell line growth inhibition [KRAS2]
Settings: spheroids with HUVEC and MSC; for viability, T/C: stronger effect = lower value
Outline: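 Combination screen of spheroid viability in tumor-cell co-cultures with endothelial (HUVEC) and mesenchymal stem cell stroma. Each agent was tested in half-log dilutions, topping at clinical Cmax or at 10 microM without a known Cmax.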

[1] = curve of first compound, second compound 0.1 µM
[2] = curve of first compound, second compound 0.316 µM
[3] = curve of first compound, second compound 1 µM
[4] = curve of first compound, second compound 3.16 µM
[5] = second compound 0.1 µM, first compound 0.0316 µM
[6] = second compound 0.1 µM, first compound 0.1 µM
[7] = second compound 0.1 µM, first compound 0.316 µM
[8] = second compound 0.1 µM, first compound 1 µM
[9] = second compound 0.1 µM, first compound 3.16 µM
[10] = second compound 0.316 µM, first compound 0.0316 µM
[11] = second compound 0.316 µM, first compound 0.1 µM
[12] = second compound 0.316 µM, first compound 0.316 µM
[13] = second compound 0.316 µM, first compound 1 µM
[14] = second compound 0.316 µM, first compound 3.16 µM
[15] = second compound 1 µM, first compound 0.0316 µM
[16] = second compound 1 µM, first compound 0.1 µM
[17] = second compound 1 µM, first compound 0.316 µM
[18] = second compound 1 µM, first compound 1 µM
[19] = second compound 1 µM, first compound 3.16 µM
[20] = second compound 3.16 µM, first compound 0.0316 µM
[21] = second compound 3.16 µM, first compound 0.1 µM
[22] = second compound 3.16 µM, first compound 0.316 µM
[23] = second compound 3.16 µM, first compound 1 µM
[24] = second compound 3.16 µM, first compound 3.16 µM
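Note: spheroids exposed to agents for 7 days.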

## CC(C)NCC(C(=O)N1CCN(c2ncnc3c2C(C)CC3O)CC1)c1ccc(Cl)cc1 (centres undefined) + CC1OCC2(CCN(c3cnc(Sc4ccnc(N)c4Cl)c(N)n3)CC2)C1N
[1]
  IC50: > 10 µM
[2]
  IC50: > 10 µM
[3]
  IC50: > 10 µM
[4]
  IC50: > 10 µM
Curve of first compound, second compound 10 µM
  IC50: 5.95 µM
[5]
  viability, T/C: 100%
[6]
  viability, T/C: 95.9%
[7]
  viability, T/C: 94.4%
[8]
  viability, T/C: 88.7%
[9]
  viability, T/C: 87.7%
Second compound 0.1 µM, first compound 10 µM
  viability, T/C: 71.7%
[10]
  viability, T/C: 93.6%
[11]
  viability, T/C: 93.5%
[12]
  viability, T/C: 89.9%
[13]
  viability, T/C: 82%
[14]
  viability, T/C: 81.6%
Second compound 0.316 µM, first compound 10 µM
  viability, T/C: 70.8%
[15]
  viability, T/C: 90.5%
[16]
  viability, T/C: 88.7%
[17]
  viability, T/C: 84.3%
[18]
  viability, T/C: 74.8%
[19]
  viability, T/C: 75.9%
Second compound 1 µM, first compound 10 µM
  viability, T/C: 66.2%
[20]
  viability, T/C: 87.4%
[21]
  viability, T/C: 83.9%
[22]
  viability, T/C: 76.5%
[23]
  viability, T/C: 70.3%
[24]
  viability, T/C: 63.2%
Second compound 3.16 µM, first compound 10 µM
  viability, T/C: 56.5%
Second compound 10 µM, first compound 0.0316 µM
  viability, T/C: 71.3%
Second compound 10 µM, first compound 0.1 µM
  viability, T/C: 68.3%
Second compound 10 µM, first compound 0.316 µM
  viability, T/C: 62.3%
Second compound 10 µM, first compound 1 µM
  viability, T/C: 54.9%
Second compound 10 µM, first compound 3.16 µM
  viability, T/C: 56.4%
Second compound 10 µM, first compound 10 µM
  viability, T/C: 46.3%

## CCN1CCN(Cc2ccc(Nc3ncc(F)c(-c4cc(F)c5nc(C)n(C(C)C)c5c4)n3)nc2)CC1
Compound 0.00316 µM
  viability, T/C: 102% [middle of 5 runs]
Compound 0.01 µM
  viability, T/C: 95.6% [middle of 5 runs]
Compound 0.0316 µM
  viability, T/C: 91.2% [middle of 5 runs]
Compound 0.1 µM
  viability, T/C: 97.8% [middle of 5 runs]
Compound 0.316 µM
  viability, T/C: 107% [middle of 5 runs]
Compound 1 µM
  viability, T/C: 101% [middle of 5 runs]
Curve of compound
  IC50: > 1 µM

## CC1COCCN1c1cc(-c2ccnn2C)c2ccnc(-c3ccn[nH]3)c2n1 (centres undefined) + C=CC(=O)N1CCN(c2nc(OCC3CCCN3C)nc3c2CCN(c2cccc4cccc(C)c24)C3)CC1CC#N
Curve of first compound, second compound 0.0316 µM
  IC50: > 3.16 µM
[1]
  IC50: > 3.16 µM
[2]
  IC50: > 3.16 µM
[3]
  IC50: > 3.16 µM
[4]
  IC50: < 0.01 µM
Second compound 0.0316 µM, first compound 0.01 µM
  viability, T/C: 109%
Second compound 0.0316 µM, first compound 0.0316 µM
  viability, T/C: 94.6%
Second compound 0.0316 µM, first compound 0.1 µM
  viability, T/C: 84.8%
Second compound 0.0316 µM, first compound 0.316 µM
  viability, T/C: 84.6%
Second compound 0.0316 µM, first compound 1 µM
  viability, T/C: 68.4%
Second compound 0.0316 µM, first compound 3.16 µM
  viability, T/C: 57.2%
Second compound 0.1 µM, first compound 0.01 µM
  viability, T/C: 99.8%
[5]
  viability, T/C: 98.4%
[6]
  viability, T/C: 81.4%
[7]
  viability, T/C: 79.3%
[8]
  viability, T/C: 65.7%
[9]
  viability, T/C: 53.4%
Second compound 0.316 µM, first compound 0.01 µM
  viability, T/C: 98%
[10]
  viability, T/C: 93.4%
[11]
  viability, T/C: 84.6%
[12]
  viability, T/C: 78.5%
[13]
  viability, T/C: 65.2%
[14]
  viability, T/C: 55.6%
Second compound 1 µM, first compound 0.01 µM
  viability, T/C: 88.1%
[15]
  viability, T/C: 88.3%
[16]
  viability, T/C: 75.1%
[17]
  viability, T/C: 71%
[18]
  viability, T/C: 66.5%
[19]
  viability, T/C: 51%
Second compound 3.16 µM, first compound 0.01 µM
  viability, T/C: 36.8%
[20]
  viability, T/C: 35.9%
[21]
  viability, T/C: 24.4%
[22]
  viability, T/C: 25%
[23]
  viability, T/C: 17.5%
[24]
  viability, T/C: 20.5%

## COc1cc2nccc(Oc3ccc(NC(=O)C4(C(=O)Nc5ccc(F)cc5)CC4)cc3)c2cc1OC
Compound 0.0316 µM
  viability, T/C: 102% [middle of 5 runs]
Compound 0.1 µM
  viability, T/C: 97.5% [middle of 5 runs]
Compound 0.316 µM
  viability, T/C: 92.5% [middle of 5 runs]
Compound 1 µM
  viability, T/C: 88.5% [middle of 5 runs]
Compound 3.16 µM
  viability, T/C: 57.1% [middle of 5 runs]
Compound 10 µM
  viability, T/C: 67.7% [middle of 5 runs]
Curve of compound
  IC50: > 10 µM
